Legend:
Palbociclib = compound: CC(=O)c1c(C)c2cnc(Nc3ccc(N4CCNCC4)cn3)nc2n(C2CCCC2)c1=O [Palbociclib]; details: max 10 µM
Method in brief: (§1)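 Viability was measured with CellTiter-Glo 2.0 luminescence after 72 hours of dosing at a final DMSO of typically 0.2%, and scaled between blank-well and DMSO-well means. Beforehand, cancer cell lines sat 24 hours at 37°C and 5% CO2 in 1536-well plates in 7.5 μl DMEM/F12 or RPMI with 10% FBS. A non-linear mixed effects model fitted two-parameter logistic curves to the dose responses. The single-agent IC50 comes from these fits.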

Taselisib = compound: Cc1nc(-c2cn3c(n2)-c2ccc(-c4cnn(C(C)(C)C(N)=O)c4)cc2OCC3)n(C(C)C)n1 [Taselisib]; details: max 10 µM
Method in brief: as §1

Prexasertib = compound: COc1cccc(OCCCN)c1-c1cc(Nc2cnc(C#N)cn2)n[nH]1 [Prexasertib]; details: max 1 µM
Method in brief: as §1

AZD1390 = compound: CC(C)n1c(=O)n(C)c2cnc3cc(F)c(-c4ccc(OCCCN5CCCCC5)nc4)cc3c21 [AZD1390]; details: max 0.3 µM
Method in brief: as §1

Crizotinib = compound: C[C@@H](Oc1cc(-c2cnn(C3CCNCC3)c2)cnc1N)c1c(Cl)ccc(F)c1Cl [Crizotinib]; details: max 10 µM
Method in brief: as §1

Paclitaxel = compound: CC(=O)O[C@H]1C(=O)[C@@]2(C)[C@H]([C@H](OC(=O)c3ccccc3)[C@]3(O)C[C@H](OC(=O)[C@H](O)[C@@H](NC(=O)c4ccccc4)c4ccccc4)C(C)=C1C3(C)C)[C@]1(OC(C)=O)CO[C@@H]1C[C@@H]2O [Paclitaxel]; details: max 3 µM
Method in brief: as §1

Alisertib = compound: COc1cc(Nc2ncc3c(n2)-c2ccc(Cl)cc2C(c2c(F)cccc2OC)=NC3)ccc1C(=O)O [Alisertib]; details: max 10 µM
Method in brief: as §1

Doxorubicin = compound: COc1cccc2c1C(=O)c1c(O)c3c(c(O)c1C2=O)C[C@@](O)(C(=O)CO)C[C@@H]3O[C@H]1C[C@H](N)[C@H](O)[C@H](C)O1 [Doxorubicin]; details: max 1 µM
Method in brief: as §1

Carboplatin = compound: C1CC(C1)(C(=O)[O-])C(=O)[O-].N.N.[Pt+2] [Carboplatin]; details: max 10 µM
Method in brief: as §1

Venetoclax = compound: CC1(C)CCC(CN2CCN(c3ccc(C(=O)NS(=O)(=O)c4ccc(NCC5CCOCC5)c([N+](=O)[O-])c4)c(Oc4cnc5[nH]ccc5c4)c3)CC2)=C(c2ccc(Cl)cc2)C1 [Venetoclax]; details: max 1 µM
Method in brief: as §1

Gemcitabine = compound: Nc1ccn([C@@H]2O[C@H](CO)[C@@H](O)C2(F)F)c(=O)n1 [Gemcitabine]; details: max 0.3 µM
Method in brief: as §1

SN-38 = compound: CCc1c2c(nc3ccc(O)cc13)-c1cc3c(c(=O)n1C2)COC(=O)[C@]3(O)CC [SN-38]; details: max 0.3 µM
Method in brief: as §1

SG3199 = compound: CC1=CN2[C@@H](C1)C=NC3=CC(=C(C=C3C2=O)OC)OCCCCCOC4=C(C=C5C(=C4)N=C[C@@H]6CC(=CN6C5=O)C)OC [SG3199]; details: max 0.001 µM
Method in brief: as §1

Gefitinib = compound: COc1cc2ncnc(Nc3ccc(F)c(Cl)c3)c2cc1OCCCN1CCOCC1 [Gefitinib]; details: max 10 µM
Method in brief: as §1

AZD6738 = compound: C[C@@H]1COCCN1C2=NC(=NC(=C2)C3(CC3)[S@](=N)(=O)C)C4=C5C=CNC5=NC=C4 [AZD6738]; details: max 10 µM
Method in brief: as §1

5-Fluorouracil = compound: O=c1[nH]cc(F)c(=O)[nH]1 [5-Fluorouracil]; details: max 20 µM
Method in brief: as §1

AZD5363 = compound: C1CN(CCC1(C(=O)N[C@@H](CCO)C2=CC=C(C=C2)Cl)N)C3=NC=NC4=C3C=CN4 [AZD5363]; details: max 10 µM
Method in brief: as §1

AZD2811 = compound: CCN(CCO)CCCOc1ccc2c(Nc3cc(CC(=O)Nc4cccc(F)c4)[nH]n3)ncnc2c1 [AZD2811]; details: max 1 µM
Method in brief: as §1

AZD1775 = compound: C=CCn1c(=O)c2cnc(Nc3ccc(N4CCN(C)CC4)cc3)nc2n1-c1cccc(C(C)(C)O)n1 [AZD1775]; details: max 3 µM
Method in brief: as §1

[1] = compound: O=C(Nc1ccc2[nH]nc(-c3ccncc3)c2c1)[C@@H]1CCN(CC(=O)N2CCN(c3ccc(-c4ncccn4)cc3)CC2)C1; details: max 5 µM
Method in brief: as §1

AZD4320 = compound: CN(CC[C@H](CSC1=CC=CC=C1)NC2=C(C=C(C=C2)S(=O)(=O)NC(=O)C3=CC=C(C=C3)N4CCC(CC4)[C@H](C5=CC=CC=C5C6=CC=C(C=C6)Cl)O)S(=O)(=O)C(F)(F)F)CCO [AZD4320]; details: max 1 µM
Method in brief: as §1

AZD5991 = compound: Cc1c2c(nn1C)CSCc1cc(n(C)n1)CSc1cc(c3ccccc3c1)OCCCc1c(C(=O)O)n(C)c3c-2c(Cl)ccc13 [AZD5991]; details: max 1 µM
Method in brief: as §1

SRA737 = compound: N#Cc1cnc(Nc2cc(NC[C@H]3CNCCO3)c(C(F)(F)F)cn2)cn1 [SRA737]; details: max 10 µM
Method in brief: as §1

AZD0156 = compound: CN(C)CCCOc1ccc(-c2ccc3ncc4c(c3c2)n(C2CCOCC2)c(=O)n4C)cn1 [AZD0156]; details: max 3 µM
Method in brief: as §1

Lapatinib = compound: CS(=O)(=O)CCNCc1ccc(-c2ccc3ncnc(Nc4ccc(OCc5cccc(F)c5)c(Cl)c4)c3c2)o1 [Lapatinib]; details: max 10 µM
Method in brief: as §1

Etoposide = compound: COc1cc([C@@H]2c3cc4c(cc3[C@@H](O[C@@H]3O[C@@H]5CO[C@@H](C)O[C@H]5[C@H](O)[C@H]3O)[C@H]3COC(=O)[C@H]23)OCO4)cc(OC)c1O [Etoposide]; details: max 10 µM
Method in brief: as §1

Selumetinib = compound: Cn1cnc2c(F)c(Nc3ccc(Br)cc3Cl)c(C(=O)NOCCO)cc21 [Selumetinib]; details: max 10 µM
Method in brief: as §1

Trametinib = compound: CC(=O)Nc1cccc(-n2c(=O)n(C3CC3)c(=O)c3c(Nc4ccc(I)cc4F)n(C)c(=O)c(C)c32)c1 [Trametinib]; details: max 1 µM
Method in brief: as §1

MK-2206 = compound: NC1(c2ccc(-c3nc4ccn5c(=O)[nH]nc5c4cc3-c3ccccc3)cc2)CCC1 [MK-2206]; details: max 10 µM
Method in brief: as §1

AZD8186 = compound: C[C@@H](Nc1cc(F)cc(F)c1)c1cc(C(=O)N(C)C)cc2c(=O)cc(N3CCOCC3)oc12 [AZD8186]; details: max 10 µM
Method in brief: as §1

Savolitinib = compound: C[C@@H](c1ccc2nccn2c1)n1nnc2ncc(-c3cnn(C)c3)nc21 [Savolitinib]; details: max 1 µM
Method in brief: as §1

AZD5153 = compound: COc1nnc2ccc(N3CCC(c4ccc(OCCN5CCN(C)C(=O)[C@H]5C)cc4)CC3)nn12 [AZD5153]; details: max 1 µM
Method in brief: as §1

Olaparib = compound: O=C(c1cc(Cc2n[nH]c(=O)c3ccccc23)ccc1F)N1CCN(C(=O)C2CC2)CC1 [Olaparib]; details: max 10 µM
Method in brief: as §1

Dasatinib = compound: CC1=C(C(=CC=C1)Cl)NC(=O)C2=CN=C(S2)NC3=CC(=NC(=N3)C)N4CCN(CC4)CCO [Dasatinib]; details: max 2 µM
Method in brief: as §1

AZD7648 = compound: Cc1cc2ncnn2cc1Nc1ncc2c(n1)n(C1CCOCC1)c(=O)n2C [AZD7648]; details: max 10 µM
Method in brief: as §1

| Cell Line | IC50, cell viability 72 h (Palbociclib) | IC50, cell viability 72 h (Taselisib) | IC50, cell viability 72 h (Prexasertib) | IC50, cell viability 72 h (AZD1390) | IC50, cell viability 72 h (Crizotinib) | IC50, cell viability 72 h (Paclitaxel) | IC50, cell viability 72 h (Alisertib) | IC50, cell viability 72 h (Doxorubicin) | IC50, cell viability 72 h (Carboplatin) | IC50, cell viability 72 h (Venetoclax) | IC50, cell viability 72 h (Gemcitabine) | IC50, cell viability 72 h (SN-38) | IC50, cell viability 72 h (SG3199) | IC50, cell viability 72 h (Gefitinib) | IC50, cell viability 72 h (AZD6738) | IC50, cell viability 72 h (5-Fluorouracil) | IC50, cell viability 72 h (AZD5363) | IC50, cell viability 72 h (AZD2811) | IC50, cell viability 72 h (AZD1775) | IC50, cell viability 72 h [1] | IC50, cell viability 72 h (AZD4320) | IC50, cell viability 72 h (AZD5991) | IC50, cell viability 72 h (SRA737) | IC50, cell viability 72 h (AZD0156) | IC50, cell viability 72 h (Lapatinib) | IC50, cell viability 72 h (Etoposide) | IC50, cell viability 72 h (Selumetinib) | IC50, cell viability 72 h (Trametinib) | IC50, cell viability 72 h (MK-2206) | IC50, cell viability 72 h (AZD8186) | IC50, cell viability 72 h (Savolitinib) | IC50, cell viability 72 h (AZD5153) | IC50, cell viability 72 h (Olaparib) | IC50, cell viability 72 h (Dasatinib) | IC50, cell viability 72 h (AZD7648) |
| --- | --- | --- | --- | --- | --- | --- | --- | --- | --- | --- | --- | --- | --- | --- | --- | --- | --- | --- | --- | --- | --- | --- | --- | --- | --- | --- | --- | --- | --- | --- | --- | --- | --- | --- | --- |
| LK-2 (Squamous Cell Lung Carcinoma) | > 10000 nM | > 10000 nM | 137 nM | > 300 nM | 5710 nM | 5.55 nM | 60.6 nM | > 1000 nM | > 10000 nM | > 1000 nM | 277 nM | 199 nM | > 1 nM | > 10000 nM | > 10000 nM | > 20000 nM | > 10000 nM | 55.1 nM | 295 nM | 1930 nM | > 1000 nM | > 1000 nM | > 10000 nM | > 3000 nM | > 10000 nM | 9260 nM | > 10000 nM | 349 nM | > 10000 nM | > 10000 nM | > 1000 nM | > 1000 nM | > 10000 nM | > 2000 nM | > 10000 nM |
| MFE-280 (Endometrial Carcinoma) | > 10000 nM | 177 nM | > 1000 nM | > 300 nM | > 10000 nM | 533 nM | 4940 nM | > 1000 nM | > 10000 nM | > 1000 nM | > 300 nM | 198 nM | > 1 nM | > 10000 nM | > 10000 nM | > 20000 nM | > 10000 nM | > 1000 nM | > 3000 nM | > 5000 nM | > 1000 nM | > 1000 nM | > 10000 nM | > 3000 nM | > 10000 nM | 7530 nM | > 10000 nM | > 1000 nM | 3590 nM | > 10000 nM | > 1000 nM | > 1000 nM | > 10000 nM | > 2000 nM | > 10000 nM |
| MKN45 (Gastric Carcinoma) | 9410 nM | 6450 nM | 19.7 nM | > 300 nM | 82.7 nM | 43.5 nM | > 10000 nM | 544 nM | > 10000 nM | > 1000 nM | 53.6 nM | 32.9 nM | > 1 nM | > 10000 nM | 2730 nM | > 20000 nM | > 10000 nM | > 1000 nM | 497 nM | 821 nM | > 1000 nM | > 1000 nM | 3610 nM | > 3000 nM | > 10000 nM | > 10000 nM | 5840 nM | 59.9 nM | 5470 nM | > 10000 nM | 13.1 nM | 719 nM | > 10000 nM | > 2000 nM | > 10000 nM |
| NCI-H2342 (Lung Adenocarcinoma) | > 10000 nM | > 10000 nM | > 1000 nM | > 300 nM | > 10000 nM | 27 nM | > 10000 nM | > 1000 nM | > 10000 nM | > 1000 nM | > 300 nM | > 300 nM | > 1 nM | > 10000 nM | > 10000 nM | > 20000 nM | > 10000 nM | > 1000 nM | > 3000 nM | > 5000 nM | > 1000 nM | > 1000 nM | > 10000 nM | > 3000 nM | > 10000 nM | > 10000 nM | > 10000 nM | > 1000 nM | > 10000 nM | > 10000 nM | > 1000 nM | > 1000 nM | > 10000 nM | > 2000 nM | > 10000 nM |
| OPM-2 (Plasma Cell Myeloma) | 8600 nM | 815 nM | 21.3 nM | > 300 nM | 4230 nM | 6.68 nM | 5670 nM | 754 nM | > 10000 nM | > 1000 nM | 98 nM | 108 nM | > 1 nM | > 10000 nM | 3920 nM | > 20000 nM | 1120 nM | > 1000 nM | 559 nM | > 5000 nM | 691 nM | 32.3 nM | 4980 nM | > 3000 nM | > 10000 nM | 9350 nM | > 10000 nM | 670 nM | 4970 nM | > 10000 nM | > 1000 nM | 12.6 nM | > 10000 nM | > 2000 nM | > 10000 nM |
